Literature values in patent publication US20100216994A1, “USE OF NOVEL COMPOUND HAVING AFFINITY FOR AMYLOID, AND PROCESS FOR PRODUCTION OF THE SAME” (NIHON MEDI-PHYSICS CO., LTD., priority 2007, published 2010).

How the values were obtained:
[1] = International Publication No. WO03/106439; cited from earlier work
[2] = [^11C]-labeled, rats; cited from earlier work

Q: Which “reverse mutation test result” value [1] does the source give for CC(=C(C#N)C#N)c1ccc2cc(N(C)CCF)ccc2c1 [FDDNP, 2-(1-{6-[(2-fluoroethyl)(methyl)amino]-2-naphthyl}ethylidene)malononitrile] here?
A: The value was “positive”.

Q: Which “reverse mutation test result” value [1] does the source give for CN(C)c1ccc(-c2cn3cc(I)ccc3n2)cc1 [IMPY, 6-iodo-2-[4′-(N,N-dimethylamino)phenyl]imidazo[1,2-a]pyridine] here?
A: The value was “positive”.

Q: With CNc1ccc(/C=C/c2ccc(O)cc2)cc1 [SB-13, (E)-4-methylamino-4′-hydroxystilbene] as the compound, how does the “clearance from normal tissues” value [2] read?
A: Its value is “it cannot be said that the clearance is sufficiently fast”.
